Active and inactive are the calls of the source. No cut-off for these calls is given here. A value given as a limit tells only on which side of the number the result lay.

Assay [1] concerns the target Delta-type opioid receptor (Mus musculus, UniProt P32300). Nature of the assay: Displacement of [3H]DPDPE from delta opioid receptor in CD1 mouse whole brain minus cerebellum membranes by liquid scintillation counting. The format is tissue-based, Membrane. Background: Loss of bound radioactivity is the signal in a displacement assay; it reports binding, not function.

The next assay addresses Mu-type opioid receptor (Mus musculus, UniProt P42866). Nature of the assay: Displacement of [3H]DAMGO from mu opioid receptor in CD1 mouse whole brain minus cerebellum membranes by liquid scintillation counting. The format is tissue-based, Membrane.
For assay [2], the species on record is Mus musculus. Nature of the assay: Selectivity ratio of Ki for delta opioid receptor in CD1 mouse whole brain minus cerebellum membranes to Ki for mu opioid receptor in CD1 mouse whole brain minus cerebellum membranes. The format is tissue-based.
The subject of assay [3] is Mus musculus. In words: Analgesic activity in acute pain CD1 mouse model assessed as withdrawal latency from radiant heat source at 40 to 80 mg/kg, ip by tail-flick assay. The format is functional, organism-based. (In hot-plate and tail-flick tests a longer latency is read as antinociception.)
In assay [4] the test system is Mus musculus. Nature of the assay: Inhibition of morphine-induced analgesia in CD1 mouse model at 80 mg/kg, ip pretreated 30 mins before 5 mg/kg, sc morphine injection and measured 30 to 120 mins after morphine treatment by tail-flick assay relative to control. The format is functional, organism-based.
In assay [5] the test system is Mus musculus. Nature of the assay: Inhibition of morphine-induced analgesia in CD1 mouse model at 40 mg/kg, ip pretreated 30 mins before 5 mg/kg, sc morphine injection and measured 30 to 120 mins after morphine treatment by tail-flick assay relative to control. The format is functional, organism-based.

By Ki is commonly meant a measure of affinity in units of concentration, obtained from inhibition or displacement. High values mean lower affinity, low ones higher affinity. Turning to `C=CC(C)(O)CC[C@@]1(C)[C@H](C)CC[C@]2(C)[C@@H]1C[C@@H](O)[C@H]1O[C@]12C` (stereo partly drawn), the Ki in assay [1] was 25 µM; at Mu-type opioid receptor, greater than 50 µM.
For the compound `C=CC(C)(O)CC[C@@]1(C)[C@H](C)CC[C@@]2(C)C(C)=CC(=O)C[C@H]12` (stereo partly drawn), the Ki stood at 23.5 µM in assay [1] and 40.5 µM at Mu-type opioid receptor.
In the case of `COc1cc(-c2cc(=O)c3c(O)c(OC)c(OC)c(OC)c3o2)ccc1O`, the Ki is 37.5 µM in assay [1] and greater than 50 µM at Mu-type opioid receptor.
For `COc1ccc(-c2cc(=O)c3c(O)c(OC)c(O)cc3o2)cc1OC` [EUPATILIN], the Ki was found to be 12 µM in assay [1] and 28 µM at Mu-type opioid receptor. Moreover, in the assay filed under Mus musculus [2], the Ratio Ki amounted to 0.43.
Take `COc1ccc(-c2cc(=O)c3c(O)c(OC)c(OC)c(OC)c3o2)cc1` [GARDENIN B]: the Ki (in assay [1]; at Mu-type opioid receptor) was greater than 50 µM each time.
For `COc1c(OC)c(O)c2c(=O)cc(-c3ccc(O)c(O)c3)oc2c1OC` [SIDERITIFLAVONE], the results for the Ki (in assay [1]; on Mu-type opioid receptor) were 12.5 µM and 18.5 µM, respectively. For the same compound, in the assay listed under Mus musculus [2], the Ratio Ki turned out to be 0.68.
On the same counts, the results for `COc1ccc(-c2cc(=O)c3c(OC)c(OC)c(OC)c(OC)c3o2)cc1` [TANGERETIN] are 7 µM, 16.3 µM and 0.43.
For `COc1c(OC)c(O)c2c(=O)cc(-c3ccc(O)cc3)oc2c1OC` [XANTHOMICROL], the result with Mus musculus [3] was inactive. Besides, the Ki in assay [1] was 3.6 µM; on Mu-type opioid receptor, 0.83 µM. For the same compound, in the assay listed under Mus musculus [2], the Ratio Ki was 4.36. In addition, in the assay on Mus musculus [4], the inhibition entry is “Active”. Also, the inhibition result in the assay with Mus musculus [5] is “inactive”.
